BigSolDB 2.1

C=CC(=O)NC(C)(C)CS(=O)(=O)O
Settings	solubility (mole fraction)
in 1,4-dioxane, 288.15 K	0.000105
in 1,4-dioxane, 293.15 K	0.000168
in 1,4-dioxane, 298.15 K	0.000274
in 1,4-dioxane, 303.15 K	0.000425
in 1,4-dioxane, 308.15 K	0.000657
in 1,4-dioxane, 313.15 K	0.000978
in 1,4-dioxane, 318.15 K	0.00139
in 1,4-dioxane, 323.15 K	0.00195
in 1,4-dioxane, 328.15 K	0.00268
in acetone, 283.15 K	0.00625
in acetone, 288.15 K	0.00695
in acetone, 293.15 K	0.00795
in acetone, 298.15 K	0.00921
in acetone, 303.15 K	0.0107
in acetone, 308.15 K	0.0126
in acetone, 313.15 K	0.0148
in acetone, 318.15 K	0.0173
in acetone, 323.15 K	0.0205
in acetone, 328.15 K	0.0244
in acetonitrile, 283.15 K	3.11e-05
in acetonitrile, 288.15 K	5.19e-05
in acetonitrile, 293.15 K	9.14e-05
in acetonitrile, 298.15 K	0.000154
in acetonitrile, 303.15 K	0.000265
in acetonitrile, 308.15 K	0.000436
in acetonitrile, 313.15 K	0.000696
in acetonitrile, 318.15 K	0.00107
in acetonitrile, 323.15 K	0.0016
in acetonitrile, 328.15 K	0.00237
in cyclohexane, 283.15 K	2.64e-05
in cyclohexane, 288.15 K	4.73e-05
in cyclohexane, 293.15 K	7.77e-05
in cyclohexane, 298.15 K	0.000139
in cyclohexane, 303.15 K	0.000229
in cyclohexane, 308.15 K	0.000359
in cyclohexane, 313.15 K	0.000567
in cyclohexane, 318.15 K	0.000867
in cyclohexane, 323.15 K	0.00125
in cyclohexane, 328.15 K	0.00179
in ethanol, 283.15 K	0.00721
in ethanol, 288.15 K	0.00794
in ethanol, 293.15 K	0.00893
in ethanol, 298.15 K	0.0102
in ethanol, 303.15 K	0.0118
in ethanol, 308.15 K	0.0138
in ethanol, 313.15 K	0.0161
in ethanol, 318.15 K	0.0189
in ethanol, 323.15 K	0.0225
in ethanol, 328.15 K	0.0264
in ethyl acetate, 283.15 K	0.00106
in ethyl acetate, 288.15 K	0.00142
in ethyl acetate, 293.15 K	0.00198
in ethyl acetate, 298.15 K	0.00262
in ethyl acetate, 303.15 K	0.00338
in ethyl acetate, 308.15 K	0.00431
in ethyl acetate, 313.15 K	0.00543
in ethyl acetate, 318.15 K	0.00672
in ethyl acetate, 323.15 K	0.00829
in ethyl acetate, 328.15 K	0.0103
in ethylene glycol, 283.15 K	0.000463
in ethylene glycol, 288.15 K	0.000687
in ethylene glycol, 293.15 K	0.00105
in ethylene glycol, 298.15 K	0.00162
in ethylene glycol, 303.15 K	0.00237
in ethylene glycol, 308.15 K	0.00329
in ethylene glycol, 313.15 K	0.00444
in ethylene glycol, 318.15 K	0.00583
in ethylene glycol, 323.15 K	0.00757
in ethylene glycol, 328.15 K	0.00972
in isobutanol, 283.15 K	0.00229
in isobutanol, 288.15 K	0.00267
in isobutanol, 293.15 K	0.00322
in isobutanol, 298.15 K	0.00394
in isobutanol, 303.15 K	0.00485
in isobutanol, 308.15 K	0.00596
in isobutanol, 313.15 K	0.00728
in isobutanol, 318.15 K	0.00885
in isobutanol, 323.15 K	0.0107
in isobutanol, 328.15 K	0.0131
in isopropanol, 283.15 K	0.000208
in isopropanol, 288.15 K	0.000333
in isopropanol, 293.15 K	0.00056
in isopropanol, 298.15 K	0.000882
in isopropanol, 303.15 K	0.00129
in isopropanol, 308.15 K	0.00186
in isopropanol, 313.15 K	0.00266
in isopropanol, 318.15 K	0.00373
in isopropanol, 323.15 K	0.00508
in isopropanol, 328.15 K	0.00671
in methanol, 283.15 K	0.00916
in methanol, 288.15 K	0.0103
in methanol, 293.15 K	0.0117
in methanol, 298.15 K	0.0138
in methanol, 303.15 K	0.0163
in methanol, 308.15 K	0.0193
in methanol, 313.15 K	0.0227
in methanol, 318.15 K	0.0268
in methanol, 323.15 K	0.0322
in methanol, 328.15 K	0.0383
in n-butanol, 283.15 K	0.00359
in n-butanol, 288.15 K	0.00403
in n-butanol, 293.15 K	0.00468
in n-butanol, 298.15 K	0.0055
in n-butanol, 303.15 K	0.00649
in n-butanol, 308.15 K	0.00773
in n-butanol, 313.15 K	0.00922
in n-butanol, 318.15 K	0.011
in n-butanol, 323.15 K	0.0133
in n-butanol, 328.15 K	0.0159
in n-heptanol, 283.15 K	0.00327
in n-heptanol, 288.15 K	0.00369
in n-heptanol, 293.15 K	0.00426
in n-heptanol, 298.15 K	0.00496
in n-heptanol, 303.15 K	0.00582
in n-heptanol, 308.15 K	0.0069
in n-heptanol, 313.15 K	0.00824
in n-heptanol, 318.15 K	0.00987
in n-heptanol, 323.15 K	0.0118
in n-heptanol, 328.15 K	0.0145
in n-propanol, 283.15 K	0.00399
in n-propanol, 288.15 K	0.00463
in n-propanol, 293.15 K	0.00542
in n-propanol, 298.15 K	0.00646
in n-propanol, 303.15 K	0.00764
in n-propanol, 308.15 K	0.0091
in n-propanol, 313.15 K	0.0108
in n-propanol, 318.15 K	0.0129
in n-propanol, 325.15 K	0.0158
in n-propanol, 328.15 K	0.0188
